Source: patent US8357694B2, “Substituted 5,6-dihydro-6-phenylbenzo[F]isoquinolin-2-amine compounds” (ArQule, Inc., priority 2008, dated 2013)
Where a name gives a salt, the structure may show the parent alone.

Columns and labels:
NCI-H1299 = assay: MTS cell kill, NCI-H1299; type: cell-based
Experimental: (§1) Cells were maintained at 37° C., 5% CO2 in DMEM media supplemented with 1% fetal bovine serum, penicillin/streptomycin and fungizone (Invitrogen). Cells were seeded into 96-well tissue culture plates at 3000 per well and cultured at 37° C. for 18 hours. Test compounds were dissolved and diluted to 300× in DMSO then diluted 1:40 in DMEM.

MDA-MB-231 = assay: MTS cell kill, MDA-MB-231; type: cell-based
Experimental: as §1

DLD-1 = assay: MTS cell kill, DLD-1; type: cell-based
Experimental: as §1

KATO III = assay: MTS assay, KATO III; type: cell-based
Experimental: as §1

PACA-2 = assay: MTS cell kill, PACA-2; type: cell-based
Experimental: as §1

FGFR2 kinase = molecular target: T1, FGFR2 kinase (Homo sapiens, UniProt P21802, N549H); assay: fluorescent ELISA FGFR2 kinase assay (biochemical); details: FGFR2 (N549H); read-out: Biochemical data (IC50-μM) FGFR2 (N549H)
T1 construct: purchased Millipore 14-742
Experimental: The enzymatic assays described herein are conducted according to the following procedures from commercially available reagents. In one, non limiting, example, a fluorescent ELISA assay is used to identify and characterize inhibitors of FGFR2 kinase as described herein. This heterogeneous assay utilizes a biotinylated peptide with a tyrosine motif as a substrate and an anti-phospho-tyrosine antibody to measure phosphorylation of the substrate. […] The reaction is incubated for 60 minutes. As the reaction proceeds, FGFR2 phosphorylates tyrosines in the peptide. […] Peptides are captured for 30 minutes at room temperature, the phosphorylation of peptides continues during this phase. The reaction is stopped by washing the streptavidin-coated plate 6 times with TBST. […] Unbound anti-phospho-tyrosine antibody is removed by washing the streptavidin-coated plate 6 times with TBST. […] Unbound secondary antibody is removed by washing the streptavidin-coated plate 6 times with TBST.

SNU-16 = assay: MTS assay, SNU-16; type: cell-based; details: Homo sapiens, SNU-16, SNU-16; read-out: MTS cell kill data (IC50-μM) SNU-16
Experimental: as §1

T1 sequence (P21802 456-770 N549H limits assumed): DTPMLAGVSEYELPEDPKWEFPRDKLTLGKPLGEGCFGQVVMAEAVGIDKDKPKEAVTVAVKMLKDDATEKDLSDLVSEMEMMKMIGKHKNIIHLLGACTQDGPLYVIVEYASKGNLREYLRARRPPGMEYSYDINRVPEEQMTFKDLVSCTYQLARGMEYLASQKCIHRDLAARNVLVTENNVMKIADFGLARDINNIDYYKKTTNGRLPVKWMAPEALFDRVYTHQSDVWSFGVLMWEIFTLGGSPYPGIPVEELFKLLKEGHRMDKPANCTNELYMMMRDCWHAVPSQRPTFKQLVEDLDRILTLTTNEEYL

Compound | IC50 (FGFR2 kinase) | IC50 (SNU-16) | other results
CN1CCN(CCCNc2ncc3c(n2)-c2ccccc2C(c2ccc(NCc4ccc5c(c4)CCO5)cc2)C3)CC1 (centres unmarked) [Example 572, 6-{4-[(2,3-dihydro-1-benzofuran-5-ylmethyl)amino]phenyl}-N-[3-(4-methylpiperazin-1-yl)propyl]-5,6-dihydrobenzo[h]quinazolin-2-amine] | – | – | MTS cell kill data (% inhibition) NCI-H1299 (NCI-H1299): A (A = 80-100% inhibition); MTS cell kill data (% inhibition) MDA-MB-231 (MDA-MB-231): A (A = 80-100% inhibition); MTS cell kill data (% inhibition) DLD-1 (DLD-1): A (A = 80-100% inhibition); MTS cell kill data (% inhibition) KATO III (KATO III): A (A = 80-100% inhibition); MTS cell kill data (% inhibition) PACA-2 (PACA-2): A (A = 80-100% inhibition)
CN1CCN(CCCNc2ncc3c(n2)-c2ccccc2C(c2ccc(NCc4cccc5cc[nH]c45)cc2)C3)CC1 (centres unmarked) [Example 573, 6-{4-[(1H-indol-7-ylmethyl)amino]phenyl}-N-[3-(4-methylpiperazin-1-yl)propyl]-5,6-dihydrobenzo[h]quinazolin-2-amine] | – | – | MTS cell kill data (% inhibition) NCI-H1299 (NCI-H1299): A (A = 80-100% inhibition); MTS cell kill data (% inhibition) MDA-MB-231 (MDA-MB-231): A (A = 80-100% inhibition); MTS cell kill data (% inhibition) DLD-1 (DLD-1): A (A = 80-100% inhibition); MTS cell kill data (% inhibition) KATO III (KATO III): A (A = 80-100% inhibition); MTS cell kill data (% inhibition) PACA-2 (PACA-2): A (A = 80-100% inhibition)
COCCN1CCN(CCc2ccc(Nc3ncc4c(n3)-c3ccccc3[C@H](c3ccc(Cl)c(Cl)c3)C4)cc2)CC1 [Example 115, (S)-6-(3,4-dichlorophenyl)-N-(4-(2-(4-(2-methoxyethyl)piperazin-1-yl)ethyl)phenyl)-5,6-dihydrobenzo[h]quinazolin-2-amine hydrochloride] | 0.211 µM | 3.03 µM | –
COCCN1CCN(CCc2ccc(Nc3ncc4c(n3)-c3ccccc3[C@H](c3ccc(F)cc3)C4)cc2)CC1 [Example 100, (S)-6-(4-fluorophenyl)-N-(4-(2-(4-(2-methoxyethyl)piperazin-1-yl)ethyl)phenyl)-5,6-dihydrobenzo[h]quinazolin-2-amine] | – | 7.36 µM | melting point: 195 to 198 °C
Cc1ccc(CNc2ccc(C3Cc4cnc(NCCCN5CCN(C)CC5)nc4-c4ccccc43)cc2)c(C)c1 (centres unmarked) [Example 571, 6-{4-[(2,4-dimethylbenzyl)amino]phenyl}-N-[3-(4-methylpiperazin-1-yl)propyl]-5,6-dihydrobenzo[h]quinazolin-2-amine] | – | – | MTS cell kill data (% inhibition) NCI-H1299 (NCI-H1299): A (A = 80-100% inhibition); MTS cell kill data (% inhibition) MDA-MB-231 (MDA-MB-231): A (A = 80-100% inhibition); MTS cell kill data (% inhibition) DLD-1 (DLD-1): A (A = 80-100% inhibition); MTS cell kill data (% inhibition) KATO III (KATO III): A (A = 80-100% inhibition); MTS cell kill data (% inhibition) PACA-2 (PACA-2): A (A = 80-100% inhibition)
CN1CCN(CCCNc2ncc3c(n2)-c2ccccc2C(c2ccc(NCc4ccccc4F)cc2)C3)CC1 (centres unmarked) [Example 574, 6-{4-[(2-fluorobenzyl)amino]phenyl}-N-[3-(4-methylpiperazin-1-yl)propyl]-5,6-dihydrobenzo[h]quinazolin-2-amine] | – | – | MTS cell kill data (% inhibition) NCI-H1299 (NCI-H1299): A (A = 80-100% inhibition); MTS cell kill data (% inhibition) MDA-MB-231 (MDA-MB-231): A (A = 80-100% inhibition); MTS cell kill data (% inhibition) DLD-1 (DLD-1): A (A = 80-100% inhibition); MTS cell kill data (% inhibition) KATO III (KATO III): A (A = 80-100% inhibition); MTS cell kill data (% inhibition) PACA-2 (PACA-2): A (A = 80-100% inhibition)
CCCCNCCc1cc(Nc2ncc3c(n2)-c2ccccc2[C@H](c2ccccc2F)C3)ccc1F [Example 171, (R)-N-(3-(2-(butylamino)ethyl)-4-fluorophenyl)-6-(2-fluorophenyl)-5,6-dihydrobenzo[h]quinazolin-2-amine hydrochloride salt] | 0.0355 µM | – | –
CCCCN(C)CCc1ccc(Nc2ncc3c(n2)-c2ccccc2[C@H](c2ccc(Cl)c(Cl)c2)C3)cc1 [Example 105, (S)-N-(4-(2-(butyl(methyl)amino)ethyl)phenyl)-6-(3,4-dichlorophenyl)-5,6-dihydrobenzo[h]quinazolin-2-amine hydrochloride salt] | 0.499 µM | 5.03 µM | –
OCCc1cc(Nc2ncc3c(n2)-c2ccccc2[C@H](c2ccccc2F)C3)ccc1F [Example 169] | 0.327 µM | – | –
COCCNCCc1cc(Nc2ncc3c(n2)-c2ccccc2[C@H](c2ccccc2F)C3)ccc1F [Example 173, (R)-N-(4-fluoro-3-(2-(2-methoxyethylamino)ethyl)phenyl)-6-(2-fluorophenyl)-5,6-dihydrobenzo[h]quinazolin-2-amine hydrochloride salt] | 0.0359 µM | 0.519 µM | –
Brc1ccc([C@@H]2Cc3cnc(Nc4ccc(CCN5CCCCC5)cc4)nc3-c3ccccc32)cc1 [Example 103, (S)-6-(4-bromophenyl)-N-(4-(2-(piperidin-1-yl)ethyl)phenyl)-5,6-dihydrobenzo[h]quinazolin-2-amine hydrochloride salt] | 0.178 µM | 3.57 µM | –
CCCCN(C)CCc1ccc(Nc2ncc3c(n2)-c2ccccc2[C@H](c2ccc(F)cc2)C3)cc1 [Example 99, (S)-N-(4-(2-(butyl(methyl)amino)ethyl)phenyl)-6-(4-fluorophenyl)-5,6-dihydrobenzo[h]quinazolin-2-amine] | – | 6.16 µM | –
CCCCN(C)CCc1ccc(Nc2ncc3c(n2)-c2ccccc2[C@@H](c2ccc(Br)cc2)C3)cc1 [Example 107, (R)-6-(4-bromophenyl)-N-(4-(2-(butyl(methyl)amino)ethyl)phenyl)-5,6-dihydrobenzo[h]quinazolin-2-amine hydrochloride salt] | 0.423 µM | – | –
CN(CCc1ccccc1)CCc1ccc(Nc2ncc3c(n2)-c2ccccc2[C@H](c2ccccc2F)C3)cc1 [Example 93, (R)-6-(2-fluorophenyl)-N-(4-(2-(methyl(phenethyl)amino)ethyl)phenyl)-5,6-dihydrobenzo[h]quinazolin-2-amine hydrochloride salt] | 0.296 µM | 3.25 µM | –

Second part, led by results:

IC50 (FGFR2 kinase) | Compound | IC50 (SNU-16) | other results
0.354 µM | Brc1ccc([C@H]2Cc3cnc(Nc4ccc(CCN5CCCCC5)cc4)nc3-c3ccccc32)cc1 [Example 108, (R)-6-(4-bromophenyl)-N-(4-(2-(piperidin-1-yl)ethyl)phenyl)-5,6-dihydrobenzo[h]quinazolin-2-amine hydrochloride salt] | – | –
0.26 µM | CN(CCc1ccc(Nc2ncc3c(n2)-c2ccccc2[C@H](c2ccc(F)cc2)C3)cc1)C1CCCCC1 [Example 102, (S)-N-(4-(2-(cyclohexyl(methyl)amino)ethyl)phenyl)-6-(4-fluorophenyl)-5,6-dihydrobenzo[h]quinazolin-2-amine] | 3.22 µM | –
0.24 µM | CN(CCc1ccc(Nc2ncc3c(n2)-c2ccccc2[C@H](c2ccccc2F)C3)cc1)C1CCCCC1 [Example 95, (R)-N-(4-(2-(cyclohexyl(methyl)amino)ethyl)phenyl)-6-(2-fluorophenyl)-5,6-dihydrobenzo[h]quinazolin-2-amine] | 1.13 µM | –
0.177 µM | Fc1ccc([C@@H]2Cc3cnc(Nc4ccc(CCN5CCCCC5)cc4)nc3-c3ccccc32)cc1 [Example 101, (S)-6-(4-fluorophenyl)-N-(4-(2-(piperidin-1-yl)ethyl)phenyl)-5,6-dihydrobenzo[h]quinazolin-2-amine] | 4.03 µM | melting point: 185 to 188 °C
0.118 µM | COCCN1CCN(CCc2ccc(Nc3ncc4c(n3)-c3ccccc3[C@H](c3cccc(Br)c3)C4)cc2)CC1 [Example 77, (S)-6-(3-bromophenyl)-N-(4-(2-(4-(2-methoxyethyl)piperazin-1-yl)ethyl)phenyl)-5,6-dihydrobenzo[h]quinazolin-2-amine hydrochloride] | 4.47 µM | –
0.0922 µM | CCCCN(C)CCc1cc(Nc2ncc3c(n2)-c2ccccc2[C@H](c2ccccc2F)C3)ccc1F [Example 172, (R)-N-(3-(2-(butyl(methyl)amino)ethyl)-4-fluorophenyl)-6-(2-fluorophenyl)-5,6-dihydrobenzo[h]quinazolin-2-amine hydrochloride salt] | – | –
0.267 µM | COCCNCCc1ccc(Nc2ncc3c(n2)-c2ccccc2[C@H](c2ccc(F)c(F)c2)C3)cc1 [Example 86, (S)-6-(3,4-difluorophenyl)-N-(4-(2-(2-methoxyethylamino)ethyl)phenyl)-5,6-dihydrobenzo[h]quinazolin-2-amine hydrochloride] | 5.13 µM | –
0.00999 µM | COCCNCCc1ccc(Nc2ncc3c(n2)-c2ccccc2[C@H](c2ccccc2F)C3)cc1 [Example 94, (R)-6-(2-fluorophenyl)-N-(4-(2-(2-methoxyethylamino)ethyl)phenyl)-5,6-dihydrobenzo[h]quinazolin-2-amine hydrochloride salt] | 0.895 µM | –
0.109 µM | OCc1cccc(Nc2ncc3c(n2)-c2ccccc2[C@H](c2ccccc2F)C3)c1 [Example 176, (R)-(3-(6-(2-fluorophenyl)-5,6-dihydrobenzo[h]quinazolin-2-ylamino)phenyl)methanol] | – | melting point: 158 to 159 °C
